From patent US8394641B2, “Method of hydrolyzing an enzymatic substrate” (Advanced Liquid Logic Inc., priority 2009, dated 2013)

Experiment: 4-MU partitioning assay (forward and backward extraction) with cyclodextrins
Type: physicochemical
Conditions: for aqueous containment of 4-MU: independent of pH
Procedure: The assay format includes forward transfer partitioning (forward extraction; FE) of 4-MU from an aqueous phase to an oil phase and backward transfer partitioning (backward extraction; BE) of 4-MU from an oil phase to an aqueous phase. The assay is performed in 96-well microtiter substrates; clear 96-well substrates (e.g., Costar 3631) for evaluation of forward transfer partitioning with bottom probe fluorescence detection and solid black 96-well substrates (e.g., Costar 3915) for evaluation of backward transfer partitioning with top probe fluorescence detection. A BioTek Synergy HT instrument with 3 mm top probe and 5 mm bottom probe, may, for example, be used for fluorescence measurements. In one example, parameters that may be varied in the assay for evaluation of cyclodextrins in aqueous containment of 4-MU include, but are not limited to, ionic strength of the aqueous phase solution, pH of the aqueous phase solution (e.g., pH 2 or pH 5), and the molar ratio of cyclodextrins to 4-MU.
An example of an assay format used for testing the effect of cyclodextrins on contamination through 4-MU partitioning includes, but is not limited to, the following steps: Pipette an aliquot (20 μL) of an aqueous phase solution (e.g., at pH 2, pH5 or pH 10.5) containing a surfactant, such as 0.01% Tween® 20 in a well of a 96-well clear microtiter plate. […] Measure the fluorescence of each well using a bottom probe at gains 40, 45, and 50. […] Remove the aluminum foil and measure the fluorescence of each well using a top probe at gains 50, 60, 70, and 80. […]
Each well of the second microtiter plate (i.e., a solid black microtiter plate) contains 50 μL of an aqueous solution (200 mM NaHCO3) at pH 10.5. […] For fluorescence calibration, an aqueous solution containing 4-MU (0, 0.01, 0.1, or 1 μM) was added to the corresponding “empty” wells of Table 5 and overlaid with a 50 μL aliquot of fresh oil.
FIGS. 17A and 17B show data tables 1700 and 1750, respectively, of fluorescence readings for forward transfer and backward transfer, respectively, of the 4-MU partitioning assay of Tables 5 and 6. […]

aqueous containment of 4-MU | contamination signal (back extraction) (molar ratio of Me-bCD to 4-MU 200:1, FIG. 16D) | Substance
effective |  | hydroxypropyl-β-cyclodextrin
effective | lowest contamination signal | methyl-β-cyclodextrin
